Common to all, as to experiment: cAMP functional assay (HTRF) in HEK293 cells in presence of 0.1% casein
What all share (format): cell-based

In experiment [1] the target is T1, human glucagon receptor (GcgR) (Homo sapiens, UniProt P47871).
T1 construct: expressed in transfected cells; host or cells: HEK293
The note with it: HEK293 cells expressing human GcgR, geometric mean, read-out: hGcgR cAMP Rel EC50 nM (SEM, n).

The target of experiment [2] is T2, human GLP-1 receptor (GLP-1R) (Homo sapiens, UniProt P43220).
T2 construct: expressed in transfected cells; host or cells: HEK293
T2 sequence (P43220 24-463): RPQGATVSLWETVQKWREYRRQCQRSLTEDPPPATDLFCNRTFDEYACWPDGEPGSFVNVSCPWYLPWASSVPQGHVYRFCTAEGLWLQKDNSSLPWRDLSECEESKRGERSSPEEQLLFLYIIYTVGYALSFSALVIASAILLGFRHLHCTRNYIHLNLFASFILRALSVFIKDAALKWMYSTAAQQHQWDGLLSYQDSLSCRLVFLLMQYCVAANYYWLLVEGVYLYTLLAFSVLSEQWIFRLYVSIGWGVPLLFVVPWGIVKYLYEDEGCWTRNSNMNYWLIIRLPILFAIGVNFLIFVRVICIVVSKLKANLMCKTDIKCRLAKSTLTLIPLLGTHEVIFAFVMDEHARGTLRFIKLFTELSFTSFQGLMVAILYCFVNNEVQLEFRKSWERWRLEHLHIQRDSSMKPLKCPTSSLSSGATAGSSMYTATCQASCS
The note with it: HEK293 cells expressing human GLP-1R, geometric mean, read-out: hGLP1R cAMP Rel EC50 nM (SEM, n).

Experiment [3] deals with T3, human glucose-dependent insulinotropic peptide receptor (GIPR) (Homo sapiens, UniProt P48546).
T3 construct: expressed in transfected cells; host or cells: HEK293
T3 sequence (P48546 22-466): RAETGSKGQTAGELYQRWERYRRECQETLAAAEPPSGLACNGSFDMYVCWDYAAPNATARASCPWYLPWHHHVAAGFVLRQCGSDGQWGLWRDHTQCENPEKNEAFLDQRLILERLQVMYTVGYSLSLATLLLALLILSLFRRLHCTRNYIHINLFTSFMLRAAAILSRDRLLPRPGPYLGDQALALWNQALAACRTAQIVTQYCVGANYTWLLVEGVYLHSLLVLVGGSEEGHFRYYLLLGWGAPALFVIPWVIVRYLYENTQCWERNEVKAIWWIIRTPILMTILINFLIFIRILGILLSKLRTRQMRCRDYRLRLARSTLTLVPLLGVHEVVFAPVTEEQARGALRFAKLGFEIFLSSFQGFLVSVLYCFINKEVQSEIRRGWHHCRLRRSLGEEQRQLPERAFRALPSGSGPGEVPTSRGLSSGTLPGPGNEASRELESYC
The note with it: HEK293 cells expressing human GIPR, geometric mean, read-out: hGIPR cAMP Rel EC50 nM (SEM, n).

*1 amine or outer side, *2 acyl side, *3 side chain or, on linkers, in order; H or OH if unused. Where a SMILES comes first, the peptide text is derived from it. Side-chain parts run from the residue outwards. [ ]: non-standard residue; d: D form. The star is where a group is joined. C20 diacid = O=C(O)CCCCCCCCCCCCCCCCCCC(=O)*; αMePhe(2-F) = C[C@](N)(Cc1ccccc1F)C(=O)O; γGlu = O=C(O)[C@H](CCC(=O)[*:2])N[*:1]; 4Pal = N[C@@H](Cc1ccncc1)C(=O)O; αMeL = CC(C)C[C@](C)(N)C(=O)O; AEEA = NCCOCCOCC(=O)O; Aib = CC(C)(N)C(=O)O Where only a bound is given, the exact number is not on record here.

T1 sequence (P47871 26-477): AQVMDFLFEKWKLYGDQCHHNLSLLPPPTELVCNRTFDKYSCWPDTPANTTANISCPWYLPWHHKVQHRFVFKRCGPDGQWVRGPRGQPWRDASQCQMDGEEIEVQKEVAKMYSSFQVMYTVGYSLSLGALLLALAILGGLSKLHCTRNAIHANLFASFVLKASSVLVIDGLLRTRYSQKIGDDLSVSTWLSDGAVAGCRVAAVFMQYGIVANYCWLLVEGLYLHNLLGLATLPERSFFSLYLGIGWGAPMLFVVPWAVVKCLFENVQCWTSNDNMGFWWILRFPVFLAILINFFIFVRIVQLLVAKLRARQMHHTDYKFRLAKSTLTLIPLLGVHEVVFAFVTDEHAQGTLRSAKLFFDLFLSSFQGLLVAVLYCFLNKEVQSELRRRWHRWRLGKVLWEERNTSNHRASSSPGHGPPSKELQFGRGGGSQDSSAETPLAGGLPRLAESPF

In the case of `CC[C@H](C)[C@H](NC(=O)[C@H](CO)NC(=O)[C@H](Cc1ccc(O)cc1)NC(=O)[C@H](CC(=O)O)NC(=O)[C@H](CO)NC(=O)[C@@H](NC(=O)[C@](C)(Cc1ccccc1F)NC(=O)[C@@H](NC(=O)CNC(=O)[C@H](CCC(=O)O)NC(=O)C(C)(C)NC(=O)[C@@H](N)Cc1ccc(O)cc1)[C@@H](C)O)[C@@H](C)CC)C(=O)N[C@@H](C)C(=O)N[C@@H](CC(C)C)C(=O)N[C@@H](CC(=O)O)C(=O)N[C@@H](CCCCN)C(=O)N[C@@H](CCCCNC(=O)COCCOCCNC(=O)COCCOCCNC(=O)CC[C@H](NC(=O)CCCCCCCCCCCCCCCCCCC(=O)O)C(=O)O)C(=O)N[C@@H](Cc1c[nH]cn1)C(=O)N[C@@H](CCC(N)=O)C(=O)NC(C)(C)C(=O)N[C@@H](CC(=O)O)C(=O)N[C@@H](Cc1ccccc1)C(=O)N[C@H](C(=O)N[C@@H](CCC(=O)O)C(=O)N[C@@H](Cc1c[nH]c2ccccc12)C(=O)N[C@@H](CC(C)C)C(=O)N[C@@H](CC(C)C)C(=O)N[C@@H](CCC(=O)O)C(=O)N[C@H](C(=O)NCC(=O)N1CCC[C@H]1C(=O)N[C@@H](CO)C(=O)N[C@@H](CO)C(=O)NCC(=O)N[C@@H](C)C(=O)N1CCC[C@H]1C(=O)N1CCC[C@H]1C(=O)N1CCC[C@H]1C(=O)N[C@@H](CO)C(N)=O)[C@@H](C)O)C(C)C` [Example 40] (H-Y[Aib]EGT[αMePhe(2-F)]ISDYSIALDKK([AEEA-AEEA-γGlu-C20 diacid])HQ[Aib]DFVEWLLETGPSSGAPPPS-NH2), the values for the EC50 in experiment [1], in experiment [2] and in experiment [3] were above 5000 nM, 2330 nM and 0.033 nM, respectively.
Take `CC[C@H](C)[C@H](NC(=O)[C@H](Cc1ccccc1)NC(=O)[C@@H](NC(=O)CNC(=O)[C@H](CCC(=O)O)NC(=O)C(C)(C)NC(=O)[C@@H](N)Cc1ccc(O)cc1)[C@@H](C)O)C(=O)N[C@@H](CO)C(=O)N[C@@H](CC(=O)O)C(=O)N[C@@H](Cc1ccc(O)cc1)C(=O)N[C@@H](CO)C(=O)N[C@H](C(=O)N[C@@](C)(CC(C)C)C(=O)N[C@@H](CC(C)C)C(=O)N[C@@H](CC(=O)O)C(=O)N[C@@H](CCCCN)C(=O)N[C@@H](CCCCNC(=O)COCCOCCNC(=O)COCCOCCNC(=O)CC[C@H](NC(=O)CCCCCCCCCCCCCCCCCCC(=O)O)C(=O)O)C(=O)N[C@@H](Cc1c[nH]cn1)C(=O)N[C@@H](CCC(N)=O)C(=O)NC(C)(C)C(=O)N[C@@H](CC(=O)O)C(=O)N[C@@H](Cc1ccccc1)C(=O)N[C@H](C(=O)N[C@@H](CCC(=O)O)C(=O)N[C@@H](Cc1ccc(O)cc1)C(=O)N[C@@H](CC(C)C)C(=O)N[C@@H](CC(C)C)C(=O)N[C@@H](C)C(=O)NCC(=O)NCC(=O)N1CCC[C@H]1C(=O)N[C@@H](CO)C(=O)N[C@@H](CO)C(=O)NCC(=O)N[C@@H](C)C(=O)N1CCC[C@H]1C(=O)N1CCC[C@H]1C(=O)N1CCC[C@H]1C(=O)N[C@@H](CO)C(N)=O)C(C)C)[C@@H](C)CC` [Example 53] (H-Y[Aib]EGTFISDYSI[αMeL]LDKK([AEEA-AEEA-γGlu-C20 diacid])HQ[Aib]DFVEYLLAGGPSSGAPPPS-NH2): the EC50 (usually the concentration that produces a half-maximal response) in experiment [1] is 344 nM; in experiment [2], above 5000 nM; in experiment [3], 0.0194 nM.
In the case of `CC[C@H](C)[C@H](NC(=O)[C@H](Cc1ccccc1)NC(=O)[C@@H](NC(=O)CNC(=O)[C@H](CCC(=O)O)NC(=O)C(C)(C)NC(=O)[C@@H](N)Cc1ccc(O)cc1)[C@@H](C)O)C(=O)N[C@@H](CO)C(=O)N[C@@H](CC(=O)O)C(=O)N[C@@H](Cc1ccc(O)cc1)C(=O)N[C@@H](CO)C(=O)N[C@H](C(=O)N[C@@](C)(CC(C)C)C(=O)N[C@@H](CC(C)C)C(=O)N[C@@H](CC(=O)O)C(=O)N[C@@H](CCCCN)C(=O)N[C@@H](CCCCNC(=O)COCCOCCNC(=O)COCCOCCNC(=O)CC[C@H](NC(=O)CCCCCCCCCCCCCCCCCCC(=O)O)C(=O)O)C(=O)N[C@@H](Cc1c[nH]cn1)C(=O)N[C@@H](CCC(N)=O)C(=O)NC(C)(C)C(=O)N[C@@H](CCC(=O)O)C(=O)N[C@@H](Cc1ccccc1)C(=O)N[C@H](C(=O)N[C@@H](CCC(=O)O)C(=O)N[C@@H](Cc1ccncc1)C(=O)N[C@@H](CC(C)C)C(=O)N[C@@H](CC(C)C)C(=O)N[C@@H](C)C(=O)N[C@@H](C)C(=O)NCC(=O)N1CCC[C@H]1C(=O)N[C@@H](CO)C(=O)N[C@@H](CO)C(=O)NCC(=O)N[C@@H](C)C(=O)N1CCC[C@H]1C(=O)N1CCC[C@H]1C(=O)N1CCC[C@H]1C(=O)N[C@@H](CO)C(N)=O)C(C)C)[C@@H](C)CC` [Example 59], the EC50 was above 5000 nM in experiment [1], above 5000 nM in experiment [2] and 0.0202 nM in experiment [3].
With `CC[C@H](C)[C@H](NC(=O)[C@H](Cc1ccccc1)NC(=O)[C@@H](NC(=O)CNC(=O)[C@H](CCC(=O)O)NC(=O)C(C)(C)NC(=O)[C@@H](N)Cc1ccc(O)cc1)[C@@H](C)O)C(=O)N[C@@H](CO)C(=O)N[C@@H](CC(=O)O)C(=O)N[C@@H](Cc1ccc(O)cc1)C(=O)N[C@@H](CO)C(=O)N[C@H](C(=O)N[C@@](C)(CC(C)C)C(=O)N[C@@H](CC(C)C)C(=O)N[C@@H](CC(=O)O)C(=O)N[C@@H](CCCCN)C(=O)N[C@@H](CCCCNC(=O)COCCOCCNC(=O)COCCOCCNC(=O)CC[C@H](NC(=O)CCCCCCCCCCCCCCCCCCC(=O)O)C(=O)O)C(=O)N[C@@H](Cc1c[nH]cn1)C(=O)N[C@@H](CCC(N)=O)C(=O)NC(C)(C)C(=O)N[C@@H](CC(=O)O)C(=O)N[C@@](C)(Cc1ccccc1)C(=O)N[C@H](C(=O)N[C@@H](CCC(=O)O)C(=O)N[C@@H](Cc1ccncc1)C(=O)N[C@@H](CC(C)C)C(=O)N[C@@H](CC(C)C)C(=O)N[C@@H](C)C(=O)NCC(=O)NCC(=O)N1CCC[C@H]1C(=O)N[C@@H](CO)C(=O)N[C@@H](CO)C(=O)NCC(=O)N[C@@H](C)C(=O)N1CCC[C@H]1C(=O)N1CCC[C@H]1C(=O)N1CCC[C@H]1C(=O)N[C@@H](CO)C(N)=O)C(C)C)[C@@H](C)CC` [Example 56], the EC50 in experiment [1] is above 5000 nM; in experiment [2], above 5000 nM; in experiment [3], 0.0169 nM.
Consider `CC[C@H](C)[C@H](NC(=O)[C@H](CO)NC(=O)[C@H](Cc1ccc(O)cc1)NC(=O)[C@H](CC(=O)O)NC(=O)[C@H](CO)NC(=O)[C@@H](NC(=O)[C@](C)(Cc1ccccc1F)NC(=O)[C@@H](NC(=O)CNC(=O)[C@H](CCC(=O)O)NC(=O)C(C)(C)NC(=O)[C@@H](N)Cc1ccc(O)cc1)[C@@H](C)O)[C@@H](C)CC)C(=O)N[C@@H](C)C(=O)N[C@@H](CC(C)C)C(=O)N[C@@H](CC(=O)O)C(=O)N[C@@H](CCCCN)C(=O)N[C@@H](CCCCNC(=O)COCCOCCNC(=O)COCCOCCNC(=O)CC[C@H](NC(=O)CCCCCCCCCCCCCCCCCCC(=O)O)C(=O)O)C(=O)N[C@@H](Cc1c[nH]cn1)C(=O)N[C@@H](CCC(N)=O)C(=O)NC(C)(C)C(=O)N[C@@H](CC(=O)O)C(=O)N[C@@H](Cc1ccccc1)C(=O)N[C@H](C(=O)N[C@@H](CCC(=O)O)C(=O)N[C@@H](Cc1ccncc1)C(=O)N[C@@H](CC(C)C)C(=O)N[C@@H](CC(C)C)C(=O)N[C@@H](CCC(=O)O)C(=O)NCC(=O)NCC(=O)N1CCC[C@H]1C(=O)N[C@@H](CO)C(=O)N[C@@H](CO)C(=O)NCC(=O)N[C@@H](C)C(=O)N1CCC[C@H]1C(=O)N1CCC[C@H]1C(=O)N1CCC[C@H]1C(=O)N[C@@H](CO)C(N)=O)C(C)C` [Example 39] (H-Y[Aib]EGT[αMePhe(2-F)]ISDYSIALDKK([AEEA-AEEA-γGlu-C20 diacid])HQ[Aib]DFVE[4Pal]LLEGGPSSGAPPPS-NH2), for which the EC50 was above 5000 nM in experiment [1], 3330 nM in experiment [2] and 0.0112 nM in experiment [3].

Source of the values: patent US12723063B2, “GIPR-agonist compounds” (Eli Lilly and Company, priority 2019, dated 2026).
